Source: patent US20230295436A1, “INTERMOLECULARLY-FABRICATED COMPOSITION FOR ENCAPSULATING PLANT MATERIALS, AGROCHEMICALS AND PHARMACEUTICALS” (University of Central Florida Research Foundation, Inc., priority 2022, published 2023)
Values after ≈ are worked out from the molar mass of the structure shown.

Assays:
S16 Rat Schwann Cells = assay: AlamarBlue viability assay, S16; format: cell-based; settings: S16 RSCs, 24 hours, 0 to 80 μM curcumin
Procedure: The viability of cells when treated with Cur-TA-PVP, TA-PVP, or free curcumin was assessed to determine the therapeutic window of treatments. This was done by performing an alamarBlue (resazurin) assay according to the manufacturer's instructions. The cell types assessed were models for those involved in PNI and subsequent PNR: S16 rat Schwann cells (RSCs), J744 murine macrophages, and SH-SY5Y cells (neuronal cell line). SH-SY5Y cells were cultured in DMEM/F12 supplemented with 10% FBS and 1% penicillin/streptomycin, whereas the J744 macrophages and S16 RSCs were cultured in DMEM supplemented with 10% FBS and 1% streptomycin/penicillin.
First, cells (n=3) were seeded in 96 well plates at a density of 10^4 cells per well and incubated overnight in a humidified atmosphere at 37° C. and 5% CO2. Cur-TA-PVP and free curcumin were then introduced into the wells at a concentration range of 0 to 80 μM curcumin. In the case of TA-PVP, the concentration range was equivalent to TA and PVP concentrations in the Cur-TA-PVP NPs. The plates were incubated for 24 hours, and the media containing treatments was then removed and fresh media with 10% 0.15 mg/mL resazurin was added into all wells. The plates were incubated for 2 hours, and the fluorescence was read using a Tecan plate reader at an ex/em of 560/590 nm. The cell viability was calculated using the following equation.

[1] = cited from earlier work
[2] = Zeta potential (surface charge); format: physicochemical; settings: optimized formulations and controls, Table 1
From the text: (§1) Malvern Zetasizer Nano ZS90 was used to study the hydrodynamic size, surface charge, and polydispersity index (PDI) of the NPs. Agilent Cary 300 Bio UV-Vis spectrophotometer was used to measure the absorbance of materials across the UV-Visible spectrum. Spectronic 200 spectrophotometer was used to carry out the degradation and release rate studies. Samples were freeze-dried using a Labconco lyophilizer. Shimadzu IRSpirit with QATR-S was used to obtain
(§2) DLS and ZP measurements were done using a Malvern Zetasizer ZS90 to determine the samples' hydrodynamic size and surface charge, respectively. The samples were diluted to approximately 200 ppm of curcumin to obtain 100 to 1000 kilo counts per second (kcps). Samples were added into the appropriate cuvettes for DLS and ZP readings.

[3] = Dynamic light scattering (hydrodynamic size, PDI); format: physicochemical; settings: optimized formulations and controls, Table 1
From the text: as §1, §2

[4] = Degradation rate of curcumin in aqueous solution; format: physicochemical
Procedure: The degradation rate of Cur-TA-PVP NPs and free curcumin was determined by measuring the peak absorbance over time as this can be correlated to the concentration in solution. […] Absorbance readings of samples were acquired at 425 nm every 60 minutes for 24 hours. Degradation rate equations were determined based on the trendlines that provide an R2 of 0.95 or greater. Simple linear regressions were also performed to compare the slopes of the degradation curves to determine if the difference was statistically significant.

[5] = Appearance / colloidal stability in water; format: physicochemical; settings: aqueous solution
From the text: Biochim Biophys Acta, 2008. 1780(4): p. 673-9.]. Curcumin directly interacts with or leads to the upregulation of many intracellular proteins involved in anti-inflammation, antioxidant, neuroprotective, and re-myelination pathways [Caillaud, M., et al., Key Developments in the Potential of Curcumin for the Treatment of Peripheral Neuropathies. Antioxidants (Basel), 2020. 9(10).]. Thus, the therapeutic potential of free curcumin is lowered by its propensity to reside in the lipid bilayer. Since the TA-PVP carrier improves the stability of curcumin in water, it is therefore expected that this would enhance its availability within the cytoplasm of cells to reach or upregulate targets involved in achieving successful PNR. The NP formulation dramatically increases the colloidal stability of curcumin compared to its free form alone in the aqueous solution.

SH-SY5Y cells = assay: H2O2-induced oxidative stress and cell viability, SH-SY5Y; format: cell-based; settings: 6 hours pre-treatment, 50 μM H2O2 for 18 hours
Procedure: The potential for Cur-TA-PVP, TA-PVP, or free curcumin to rescue cells from oxidative damage induced by H2O2 was assessed to determine the antioxidant activity of the treatments in cells. The assay was performed according to a previously published protocol by Mahakunakorn et al. [Mahakunakorn, P., et al., Cytoprotective and cytotoxic effects of curcumin: dual action on H2O2-induced oxidative cell damage in NG108-15 cells. Biol Pharm Bull, 2003. 26(5): p. 725-8.]. Briefly, SH-SY5Y cells and J744 murine macrophages were each seeded in 96 well plates (n=3) and incubated overnight at 37° C. and 5% CO2. Cells were then pre-treated with fresh media containing treatments for 6 hours, and then with fresh media containing 100 μM H2O2 (J774) or 50 μM (SH-SY5Y) for another 18 hours. The media was then replaced with complete media containing 10% of 0.15 mg/mL resazurin. The cells were incubated for 2 hours, and the fluorescence was read at an ex/em of 560/590 nm. The cell viability was determined using the equation noted in section 10.3.1.

- Zeta Potential [2]: −13 mV
- Polydispersity Index (PDI) [3]: 0.578
- Z-ave [3]: 328 nm·days
- slope of degradation curve (simple linear regression) ([4]; 40 μM in water, absorbance at 425 nm every 60 minutes for 24 hours): −0.01123
Compound: COc1cc(/C=C/C(=O)CC(=O)/C=C/c2ccc(O)c(OC)c2)ccc1O [Free Curcumin, curcumin]
- cell viability compared to other treatment groups (S16 Rat Schwann Cells): higher cell viability than the other treatment groups at all concentrations
- water solubility [1]: 100 µg/mL (≈ 271 µM)
- curcumin remaining in its viable form ([4]; after 24 hours of dispersion in PBS): about 60%
- colloidal stability in water (appearance) [5]: precipitate and sink to the bottom of the vial
- protection against H2O2-induced oxidative stress (cell rescue) (SH-SY5Y cells): no cell rescue
